# Laboratory results as given in patent US10669261B2, “Heteroarylhydroxypyrimidinones as agonists of the APJ receptor” (BRISTOL-MYERS SQUIBB COMPANY, priority 2015, dated 2020).
# Where two headings read alike, the source gives them in different places.
# Biological target: T1, human APJ receptor (Homo sapiens, UniProt P35414)
# T1 construct: expressed in transfected cells
# T1 sequence (P35414 1-380): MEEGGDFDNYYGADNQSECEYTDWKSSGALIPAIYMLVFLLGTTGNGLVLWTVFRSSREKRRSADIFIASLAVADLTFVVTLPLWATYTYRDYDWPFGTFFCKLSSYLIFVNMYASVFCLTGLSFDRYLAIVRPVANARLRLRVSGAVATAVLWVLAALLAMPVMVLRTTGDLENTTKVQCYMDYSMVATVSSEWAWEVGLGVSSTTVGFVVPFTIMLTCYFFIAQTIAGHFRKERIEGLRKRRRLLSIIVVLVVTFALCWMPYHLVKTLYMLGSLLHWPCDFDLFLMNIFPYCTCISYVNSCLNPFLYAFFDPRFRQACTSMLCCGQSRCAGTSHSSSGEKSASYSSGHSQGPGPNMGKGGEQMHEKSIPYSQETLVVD
# Assay: Intracellular cAMP accumulation assay (APJ hcAMP, HTRF)
# Assay type: cell-based
# Conditions: HEK293 cells stably expressing human APJ receptor
# Procedure: Intracellular cAMP Accumulation Assay
# HEK293 cells stably expressing human APJ receptor were used to assess the activity of compounds. Cultured cells were detached and resuspended in the cAMP Homogeneous Time-Resolved Fluorescence (HTRF) assay buffer (Cisbio cat; #62AM4PEJ). The assay was performed in 384-well assay plates (Perkin-Elmer; cat #6008289) according to assay protocol provided by the manufacturer. Serial dilutions of a compound together with assay buffer containing […] IBMX and 2 μM forskolin were added to each well containing 5,000 cells and incubated for 30 minutes at room temperature. Subsequently, cAMP D2 reagent was added in the lysis buffer followed by the EuK antibody (Cisbio; cat #62AM4PEJ) and incubated for 60 min. The fluorescence emission ratio was measured using fluorometer. The intracellular cAMP concentrations (compound-stimulated inhibition of forskolin-mediated cAMP production) were calculated by extrapolation from a standard curve using known cAMP concentrations. The EC50 values were obtained by fitting the data to a sigmoidal concentration-response curve with variable slope. The maximal achievable inhibition of forskolin-induced cAMP levels (Ymax) for each compound was expressed as relative percentage of inhibition attained using pyroglutamated apelin-13 ((Pyr1)apelin-13) peptide, which was set to 100%.
# The examples disclosed below were tested in the APJ in vitro assays described above and were found having human APJ cyclic AMP (hcAMP) activity. The EC50 value of each compound is presented at the end of the example description.
# The biological activity of the exemplified compounds of this invention determined by the assay described above is shown at the end of each example.
# [1] = inhibition of forskolin-mediated cAMP production, stated at end of example, read-out: Human APJ cAMP Potency Range
# [2] = Table 1, read-out: hAPJ cAMP EC50 Potency range
Structure (SMILES),EC50 [2] [nM],further results
"CCCCc1nc(O)c(-c2nnc(Cc3csc(C)n3)o2)c(=O)n1C(C)c1cccnc1 (racemic) [Example 124, 2-butyl-6-hydroxy-5-{5-[(2-methyl-1,3-thiazol-4-yl)methyl]-1,3,4-oxadiazol-2-yl}-3-[1-(pyridin-3-yl)ethyl]-3,4-dihydropyrimidin-4-one]",,"EC50 (Table 2, read-out: hAPJ cAMP EC50 Potency range): 100 to 300 nM"
"CCCCc1nc(=O)c(-c2nnc(Cc3noc4ccccc34)o2)c(O)n1-c1c(OC)cccc1OC [Example 1, 5-(5-(benzo[d]isoxazol-3-ylmethyl)-1,3,4-oxadiazol-2-yl)-2-butyl-1-(2,6-dimethoxyphenyl)-6-hydroxypyrimidin-4(1H)-one]",,EC50 [1]: 0.01 to 10 nM
"CCCCc1nc(=O)c(-c2nnc(Cc3noc4ccccc34)o2)c(O)n1-c1c(Br)cccc1Br [Example 15, 5-[5-(1,2-benzoxazol-3-ylmethyl)-1,3,4-oxadiazol-2-yl]-2-butyl-1-(2,6-dibromophenyl)-6-hydroxy-1,4-dihydropyrimidin-4-one]",0.01 to 10,
"COc1cccc(OC)c1-n1c(CCC(C)C)nc(=O)c(-c2nnc(CN3CCOCC3=O)o2)c1O [Example 16, 4-({5-[1-(2,6-dimethoxyphenyl)-6-hydroxy-2-(3-methylbutyl)-4-oxo-1,4-dihydropyrimidin-5-yl]-1,3,4-oxadiazol-2-yl}methyl)morpholin-3-one]",0.01 to 10,
"C=CCCc1nc(=O)c(-c2nnc(Cc3noc4ccccc34)o2)c(O)n1-c1c(C)cccc1OC [Example 17, 5-[5-(1,2-benzoxazol-3-ylmethyl)-1,3,4-oxadiazol-2-yl]-2-(but-3-en-1-yl)-6-hydroxy-1-(2-methoxy-6-methylphenyl)-1,4-dihydropyrimidin-4-one]",0.01 to 10,
"CCCCc1nc(=O)c(-c2nnc(Cc3noc4ccccc34)o2)c(O)n1-c1c(OC)ncnc1OC [Example 18, 5-[5-(1,2-benzoxazol-3-ylmethyl)-1,3,4-oxadiazol-2-yl]-2-butyl-1-(4,6-dimethoxypyrimidin-5-yl)-6-hydroxy-1,4-dihydropyrimidin-4-one]",0.01 to 10,
"CCCCc1nc(=O)c(-c2nnc(Cc3noc4ccccc34)o2)c(O)n1-c1c(Cl)cccc1Cl [Example 19, 5-[5-(1,2-benzoxazol-3-ylmethyl)-1,3,4-oxadiazol-2-yl]-2-butyl-1-(2,6-dichlorophenyl)-6-hydroxy-1,4-dihydropyrimidin-4-one]",0.01 to 10,
"COc1cccc(OC)c1-n1c(CC2CC2)nc(=O)c(-c2nnc(Cc3noc4ccccc34)o2)c1O [Example 20, 5-[5-(1,2-benzoxazol-3-ylmethyl)-1,3,4-oxadiazol-2-yl]-2-(cyclopropylmethyl)-1-(2,6-dimethoxyphenyl)-6-hydroxy-1,4-dihydropyrimidin-4-one]",0.01 to 10,
"COc1cccc(OC)c1-n1c(CC2CC2)nc(=O)c(-c2nnc(Cc3ccc(Cl)cc3)o2)c1O [Example 21, 5-{5-[(4-chlorophenyl)methyl]-1,3,4-oxadiazol-2-yl}-2-(cyclopropylmethyl)-1-(2,6-dimethoxyphenyl)-6-hydroxy-1,4-dihydropyrimidin-4-one]",0.01 to 10,
"COc1cccc(OC)c1-n1c(CC2CC2)nc(=O)c(-c2nnc(Cc3nc(-c4ccccn4)no3)o2)c1O [Example 22, 2-(cyclopropylmethyl)-1-(2,6-dimethoxyphenyl)-6-hydroxy-5-(5-{[3-(pyridin-2-yl)-1,2,4-oxadiazol-5-yl]methyl}-1,3,4-oxadiazol-2-yl)-1,4-dihydropyrimidin-4-one]",0.01 to 10,
"CCCCc1nc(=O)c(-c2nnc(Cc3noc4ccccc34)o2)c(O)n1-c1c(OCC)cccc1OCC [Example 23, 5-(5-(Benzo[d]isoxazol-3-ylmethyl)-1,3,4-oxadiazol-2-yl)-2-butyl-1-(2,6-diethoxyphenyl)-6-hydroxypyrimidin-4(1H)-one]",,EC50 [1]: 0.01 to 10 nM

# Continued, in another order:
EC50 [2] [nM],Structure (SMILES),further results
0.01 to 10,"CCCCc1nc(=O)c(-c2nnc(Cc3ccc(Cl)cc3)o2)c(O)n1-c1c(OC)cccc1OC [Example 2, 2-butyl-5-{5-[(4-chlorophenyl)methyl]-1,3,4-oxadiazol-2-yl}-1-(2,6-dimethoxyphenyl)-6-hydroxy-1,4-dihydropyrimidin-4-one]",
0.01 to 10,"C=CCCc1nc(=O)c(-c2nnc(Cc3noc4ccccc34)o2)c(O)n1-c1c(OC)cccc1OC [Example 3, 5-[5-(1,2-benzoxazol-3-ylmethyl)-1,3,4-oxadiazol-2-yl]-2-(but-3-en-1-yl)-1-(2,6-dimethoxyphenyl)-6-hydroxy-1,4-dihydropyrimidin-4-one]",
0.01 to 10,"CCCCc1nc(=O)c(-c2nnc(Cc3noc4ccccc34)o2)c(O)n1-c1c(CC)cccc1CC [Example 4, 5-[5-(1,2-benzoxazol-3-ylmethyl)-1,3,4-oxadiazol-2-yl]-2-butyl-1-(2,6-diethylphenyl)-6-hydroxy-1,4-dihydropyrimidin-4-one]",
0.01 to 10,"CCCCc1nc(=O)c(-c2nnc(Cc3csc(C)n3)o2)c(O)n1-c1c(OC)cccc1OC [Example 5, 2-butyl-1-(2,6-dimethoxyphenyl)-6-hydroxy-5-{5-[(2-methyl-1,3-thiazol-4-yl)methyl]-1,3,4-oxadiazol-2-yl}-1,4-dihydropyrimidin-4-one]",
0.01 to 10,"CCCCc1nc(=O)c(-c2nnc(Cn3ccccc3=O)o2)c(O)n1-c1c(OC)cccc1OC [Example 6, 2-butyl-1-(2,6-dimethoxyphenyl)-6-hydroxy-5-{5-[(2-oxo-1,2-dihydropyridin-1-yl)methyl]-1,3,4-oxadiazol-2-yl}-1,4-dihydropyrimidin-4-one]",
0.01 to 10,"COc1cccc(OC)c1-n1c(CCC(C)C)nc(=O)c(-c2nnc(CN3CCCC3=O)o2)c1O [Example 7, 1-(2,6-dimethoxyphenyl)-6-hydroxy-2-(3-methylbutyl)-5-{5-[(2-oxopyrrolidin-1-yl)methyl]-1,3,4-oxadiazol-2-yl}-1,4-dihydropyrimidin-4-one]",
0.01 to 10,"CCCCc1nc(=O)c(-c2nnc(CN3CCCC3=O)o2)c(O)n1-c1c(OC)cccc1OC [Example 8, 2-butyl-1-(2,6-dimethoxyphenyl)-6-hydroxy-5-{5-[(2-oxopyrrolidin-1-yl)methyl]-1,3,4-oxadiazol-2-yl}-1,4-dihydropyrimidin-4-one]",
0.01 to 10,"CCCCc1nc(=O)c(-c2nnc(Cc3nc(-c4ccccn4)no3)o2)c(O)n1-c1c(OC)cccc1OC [Example 9, 2-butyl-1-(2,6-dimethoxyphenyl)-6-hydroxy-5-(5-{[3-(pyridin-2-yl)-1,2,4-oxadiazol-5-yl]methyl}-1,3,4-oxadiazol-2-yl)-1,4-dihydropyrimidin-4-one]",
0.01 to 10,"COc1cccc(OC)c1-n1c(CCC(C)C)nc(=O)c(-c2nnc(Cn3ccccc3=O)o2)c1O [Example 10, 1-(2,6-dimethoxyphenyl)-6-hydroxy-2-(3-methylbutyl)-5-{5-[(2-oxo-1,2-dihydropyridin-1-yl)methyl]-1,3,4-oxadiazol-2-yl}-1,4-dihydropyrimidin-4-one]",
0.01 to 10,"C=CCCc1nc(=O)c(-c2nnc(Cc3nc(-c4ccccn4)no3)o2)c(O)n1-c1c(OC)cccc1OC [Example 11, 2-(but-3-en-1-yl)-1-(2,6-dimethoxyphenyl)-6-hydroxy-5-(5-{[3-(pyridin-2-yl)-1,2,4-oxadiazol-5-yl]methyl}-1,3,4-oxadiazol-2-yl)-1,4-dihydropyrimidin-4-one]",
0.01 to 10,"COc1cccc(OC)c1-n1c(CCCC(F)(F)F)nc(=O)c(-c2nnc(Cc3noc4ccccc34)o2)c1O [Example 12, 5-[5-(1,2-benzoxazol-3-ylmethyl)-1,3,4-oxadiazol-2-yl]-1-(2,6-dimethoxyphenyl)-6-hydroxy-2-(4,4,4-trifluorobutyl)-1,4-dihydropyrimidin-4-one]",
0.01 to 10,"CCCCc1nc(=O)c(-c2nnc(Cc3noc4ccccc34)o2)c(O)n1-c1c(C)cccc1OC [Example 13, 5-[5-(1,2-benzoxazol-3-ylmethyl)-1,3,4-oxadiazol-2-yl]-2-butyl-6-hydroxy-1-(2-methoxy-6-methylphenyl)-1,4-dihydropyrimidin-4-one]",
0.01 to 10,"C=CCCc1nc(=O)c(-c2nnc(Cc3ccc(Cl)cc3)o2)c(O)n1-c1c(OC)cccc1OC [Example 14, 2-(but-3-en-1-yl)-5-{5-[(4-chlorophenyl)methyl]-1,3,4-oxadiazol-2-yl}-1-(2,6-dimethoxyphenyl)-6-hydroxy-1,4-dihydropyrimidin-4-one]",
